In the assay the target is T1, Recombinant Human SSAO/VAP-1/AOC3 (Homo sapiens, UniProt Q16853).
T1 construct: purchased R&D systems 3957-AO
T1 sequence (Q16853 1-763): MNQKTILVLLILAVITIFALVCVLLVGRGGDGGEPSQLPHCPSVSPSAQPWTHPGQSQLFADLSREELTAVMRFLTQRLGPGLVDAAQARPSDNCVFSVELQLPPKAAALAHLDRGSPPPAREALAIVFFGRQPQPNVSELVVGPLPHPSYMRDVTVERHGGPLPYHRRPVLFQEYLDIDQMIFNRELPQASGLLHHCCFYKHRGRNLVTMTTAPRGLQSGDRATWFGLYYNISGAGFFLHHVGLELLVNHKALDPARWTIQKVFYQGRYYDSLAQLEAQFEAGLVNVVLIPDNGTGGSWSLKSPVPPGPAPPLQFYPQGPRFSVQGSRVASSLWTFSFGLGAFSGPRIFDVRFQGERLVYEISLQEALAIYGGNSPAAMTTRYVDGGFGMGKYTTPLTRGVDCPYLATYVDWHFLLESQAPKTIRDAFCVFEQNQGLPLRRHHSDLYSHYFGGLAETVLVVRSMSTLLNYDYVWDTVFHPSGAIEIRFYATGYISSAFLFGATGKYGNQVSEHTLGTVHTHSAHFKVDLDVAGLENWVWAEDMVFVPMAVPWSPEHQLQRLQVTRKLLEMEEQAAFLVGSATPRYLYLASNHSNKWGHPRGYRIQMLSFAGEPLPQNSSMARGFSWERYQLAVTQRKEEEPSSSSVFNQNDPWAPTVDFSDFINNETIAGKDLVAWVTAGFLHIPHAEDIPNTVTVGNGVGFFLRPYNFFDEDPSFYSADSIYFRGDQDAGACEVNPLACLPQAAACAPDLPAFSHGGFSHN
In words: Human Semicarbazide-Sensitive Amine Oxidase (SSAO) Assay. The settings on record: recombinant enzyme; 30 minutes preincubation at 37° C.; benzylamine substrate; Amplex Ultra Red/HRP fluorescence. Type of assay: biochemical. How it is done:
Example B-1: Human Semicarbazide-Sensitive Amine Oxidase (SSAO) Assay
Compounds were dissolved in DMSO to provide a Concentration Response Curve (CRC; at 500 times the final concentration) over a range of 6-10 dilutions.
Recombinant Human SSAO/VAP-1/AOC3 (R&D systems; Catalog #3957-AO) was used to screen compound potency in vitro, according to previously described methods (J Pharmacol Exp Ther. 2013 November; 347(2):365-74). SSAO enzyme was suspended in 50 mM HEPES buffer to a working concentration of 2.5 μg/ml and 40 μL of this enzyme mixture was then added to each well of a F16 Black Maxisorp 96 well Plate (Nunc, Catalog #475515). Ten microliters of each test compound (at 5 times the final concentration) were added to each well, resulting in a final well volume of 50 μL of the enzyme and inhibitor mixture. The compounds were preincubated with the enzyme for 30 minutes at 37° C., prior to the addition of a 40 μL volume of Amplex Ultra Red (125 uM AUR; Molecular Probes, Catalog #A36006)/Horseradish peroxidase (2.5 U/ml HRP; Sigma-Aldrich Catalog #P8375) oxidase detection reagent containing cytochrome C (7.5 μM; Sigma-Aldrich Catalog #C7752). Cytochrome C was included in the AUR/HRP detection mixture to reduce the background fluorescence that can occur via the spontaneous redox reaction between AUR and HRP. The SSAO enzyme reaction was then initiated by adding 10 μL of the SSAO substrate, benzylamine (Sigma-Aldrich Catalog #B5136), and SSAO activity was measured in kinetic mode over a 30-120 minute sampling period (excit. 544 nm; emit 590 nm; cut off 570 nm; medium gain) to obtain IC50 values for enzyme activity in each treatment well.

Usually IC50 stands for the midpoint of a concentration-inhibition curve. Regarding `COC1(CNC(=O)C23CCC(c4ccc(OC/C(=C/F)CN)cc4)(CC2)CC3)CCCCC1` [Compound 2.102, (E)-4-(4-((2-(aminomethyl)-3-fluoroallyl)oxy)phenyl)-N-((1-methoxycyclohexyl)methyl) bicyclo[2.2.2]octane-1-carboxamide], the IC50 was not above 10 nM. Consider `CO[C@H]1CC[C@H](NC(=O)C23CCC(c4ccc(OC/C(=C/F)CN)cc4)(CC2)CC3)CC1` [Compound 2.104, 4-(4-(((E)-2-(aminomethyl)-3-fluoroallyl)oxy)phenyl)-N-((1r,4r)-4-methoxycyclohexyl)bicyclo[2.2.2] octane-1-carboxamide], for which the half-inhibitory concentration (IC50) was not above 10 nM.

Take `COCCO[C@H]1CC[C@H](NC(=O)C23CCC(c4ccc(OC/C(=C/F)CN)cc4)(CC2)CC3)CC1` [Compound 2.142, 4-(4-(((E)-2-(aminomethyl)-3-fluoroallyl)oxy)phenyl)-N-((1r,4r)-4-(2-methoxyethoxy)cyclohexyl)bicyclo [2.2.2]octane-1-carboxamide]: the IC50 is not above 10 nM.

With `CC(C)(C)O[C@H]1C[C@@H](NC(=O)C23CCC(c4ccc(OC/C(=C/F)CN)cc4)(CC2)CC3)C1` [Compound 2.149, 4-(4-(((E)-2-(aminomethyl)-3-fluoroallyl)oxy)phenyl)-N-((1s,3s)-3-(tert-butoxy)cyclobutyl)bicyclo[2.2.2] octane-1-carboxamide], the IC50 was not above 10 nM.

Consider `NC/C(=C\F)COc1ccc(C23CCC(C(=O)NC4(C(F)(F)F)CCOCC4)(CC2)CC3)cc1` [Compound 2.152, (E)-4-(4-((2-(aminomethyl)-3-fluoroallyl)oxy)phenyl)-N-(4-(trifluoromethyl)tetrahydro-2H-pyran-4-yl)bicyclo[2.2.2]octane-1-carboxamide], for which the IC50 is not above 10 nM.

Turning to `CO[C@H]1CC[C@H](NC(=O)C23CC(c4ccc(OC/C(=C/F)CN)cc4)(C2)C3)CC1` [Compound 3.04, 3-(4-(((E)-2-(aminomethyl)-3-fluoroallyl)oxy)phenyl)-N-((1r,4r)-4-methoxycyclohexyl)bicyclo[1.1.1] pentane-1-carboxamide], the IC50 is not above 10 nM.

These data come from patent US20220002309A1, “SSAO INHIBITORS AND USES THEREOF” (Metacrine, Inc., priority 2018, published 2022).
